The values that follow are results of earlier work, collected in patent publication US5545620A, “Synthetic fibronectin fragments as inhibitors of retroviral infection” (priority 1994, dated 1996).

This data set has as its system cell adhesion. To be noted: cited from earlier work.

Take “FN-6: fibronectin fragment (1961-1985) SEQ ID NO. 6, restricted to isoforms containing the type IIIcs region (DELPQLVTLPHPNLHGPEILDVPST)”: the “promotion of cell adhesion” value is recorded as “promotes cell adhesion by an α4β1 integrin-dependent mechanism”. With KNNQKSEPLIGRKKT [FN-2], the “promotion of cell adhesion” value is “promote cell adhesion”. With “YEKPGSPPREWPRPRPGV (YEKPGSPPREVVPRPRPGV) [FN-1]”, the “promotion of cell adhesion” value is reported as “promote cell adhesion”.
